Results taken from US9394250B2, “Substituted pyrrolidines as factor xia inhibitors for the treatment thromboembolic diseases” (ONO PHARMACEUTICAL CO., LTD., priority 2012, dated 2016).
Where a name gives a salt, the structure may show the parent alone.

How the values were obtained:
Assay type in all cases: biochemical
Human Factor XIa = Human Factor XIa (Homo sapiens (Human), UniProt P03951); experiment: Factor XIa enzyme activity, chromogenic substrate S-2366; conditions: purified human Factor XIa 0.1 U/mL, 300 μM S-2366, pH7.4; read-out: In vitro FXIa inhibitory activity IC50
Method: (§1) Inhibitory activities of compounds of the present invention against factor XIa, Xa, XIIa, IXa, VIIa, plasma kallikrein or thrombin were evaluated using appropriate purified proteases and synthetic substrates. The rate of hydrolysis of the chromogenic substrate by the relevant protease was continuously measured at 405 nm. Inhibitory activity against each enzyme was calculated as % inhibition using the equation described below. % Inhibition=[[(rate without compound)−(rate with compound)]/(rate without compound)]×100%. Each half maximal inhibitory concentration (IC50) value was determined by plotting the concentration of compound of the invention against the % inhibition. (1-1) Factor XIa Enzyme Activity
Human Factor XIa (Haematologic Technologies Inc.) activity was measured at an enzyme concentration of 0.1 U/mL in 150 mM NaCl, 5 mM KCl, 1 mg/mL PEG6000, 50 mM HEPES-NaOH (pH7.4) with 300 μM S-2366 (pyroGlu-Pro-Arg-pNA, Chromogenix).

human thrombin = human thrombin (Homo sapiens (Human), UniProt P00734); experiment: Thrombin enzyme activity, chromogenic substrate S-2366; conditions: human thrombin 0.12 U/mL, 300 μM S-2366, pH7.4; read-out: In vitro Thrombin inhibitory activity IC50
Method: as §1
(§2) Human Factor Xa (American Diagnostica Inc.) and human thrombin (Sigma) activities were measured at the enzyme concentrations of 0.18 U/mL and 0.12 U/mL, respectively in the same buffer containing 150 mM NaCl, 2 mg/mL PEG6000, 50 mM Tris-HCl (pH7.4), except that the reactions were started with 300 μM S-2222 ([…], Chromogenix) and 300 μM S-2366, respectively.

Human Factor Xa = Human Factor Xa (Homo sapiens (Human), UniProt P00742); experiment: Factor Xa enzyme activity, chromogenic substrate S-2222; conditions: human Factor Xa 0.18 U/mL, 300 μM S-2222, pH7.4; read-out: In vitro FXa inhibitory activity IC50
Method: as §1, §2

Human Factor XIa, sequence (P03951 388-625): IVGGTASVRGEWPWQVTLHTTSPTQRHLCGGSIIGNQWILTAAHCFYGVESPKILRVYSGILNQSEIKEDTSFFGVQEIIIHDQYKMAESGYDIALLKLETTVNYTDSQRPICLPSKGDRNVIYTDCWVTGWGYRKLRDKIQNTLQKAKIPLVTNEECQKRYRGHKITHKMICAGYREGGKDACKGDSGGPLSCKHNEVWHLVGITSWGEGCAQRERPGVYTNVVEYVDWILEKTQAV
Human Factor XIa, sequence (P03951 19-387 partner): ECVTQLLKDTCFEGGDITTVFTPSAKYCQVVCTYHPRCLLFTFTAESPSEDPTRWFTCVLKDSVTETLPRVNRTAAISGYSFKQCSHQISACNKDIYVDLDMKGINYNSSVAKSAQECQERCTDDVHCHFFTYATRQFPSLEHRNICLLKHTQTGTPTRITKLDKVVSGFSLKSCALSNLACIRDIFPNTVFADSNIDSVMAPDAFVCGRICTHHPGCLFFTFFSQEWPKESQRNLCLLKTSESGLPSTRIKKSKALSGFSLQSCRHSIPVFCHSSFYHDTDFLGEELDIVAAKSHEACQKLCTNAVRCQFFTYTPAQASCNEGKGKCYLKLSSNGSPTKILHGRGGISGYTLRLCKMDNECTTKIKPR
Human Factor Xa, sequence (P00742 235-488): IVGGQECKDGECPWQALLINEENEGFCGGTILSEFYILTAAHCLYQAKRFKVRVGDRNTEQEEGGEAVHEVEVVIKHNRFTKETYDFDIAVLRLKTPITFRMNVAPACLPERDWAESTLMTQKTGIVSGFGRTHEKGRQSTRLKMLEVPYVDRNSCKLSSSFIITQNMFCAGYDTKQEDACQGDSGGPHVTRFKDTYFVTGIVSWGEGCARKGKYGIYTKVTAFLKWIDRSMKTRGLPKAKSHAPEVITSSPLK
Human Factor Xa, sequence (P00742 41-179 partner): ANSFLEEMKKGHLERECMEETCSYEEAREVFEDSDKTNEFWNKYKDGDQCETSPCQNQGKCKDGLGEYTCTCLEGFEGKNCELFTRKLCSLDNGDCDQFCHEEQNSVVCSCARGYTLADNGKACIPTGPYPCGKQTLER

SMILES	IC50 (Human Factor XIa) [µM]	IC50 (human thrombin) [µM]	IC50 (Human Factor Xa) [µM]
CS(=O)(=O)N1CCN([C@H]2C[C@@H](C(=O)Nc3ccc(C(=O)O)cc3)N(C(=O)C3CCN(C(=N)N)CC3)C2)CC1 [Example 9, 4-[({(2S,4S)-1-[(1-carbamimidoyl-4-piperidinyl)carbonyl]-4-[4-(methylsulfonyl)-1-piperazinyl]-2-pyrrolidinyl}carbonyl)amino]benzoic acid bis(trifluoroacetate)]	0.017	> 100	> 100
CS(=O)(=O)N1CCN([C@H]2C[C@@H](C(=O)Nc3ccc(C(=O)O)cc3)N(C(=O)c3ccc(C(=N)N)cc3)C2)CC1 [Example 20, 4-[({(2S,4S)-1-(4-carbamimidoylbenzoyl)-4-[4-(methylsulfonyl)-1-piperazinyl]-2-pyrrolidinyl}carbonyl)amino]benzoic acid bis(trifluoroacetate)]	0.0032	> 100	> 100
O=C(O)c1ccc(NC(=O)[C@@H]2C[C@H](N3CCOCC3)CN2C(=O)/C=C/c2cc(Cl)ccc2-n2cnnn2)cc1 [Example 37, 4-({[(2S,4S)-1-{(2E)-3-[5-chloro-2-(1H-tetrazol-1-yl)phenyl]-2-propenoyl}-4-(4-morpholinyl)-2-pyrrolidinyl]carbonyl}amino)benzoic acid trifluoroacetate]	0.013	> 100	> 100
O=C(Nc1ccccc1)[C@@H]1C[C@H](N2CCN(S(=O)(=O)c3ccccc3)CC2)CN1C(=O)/C=C/c1cc(Cl)ccc1-n1cnnn1 [Example 39, (2S,4S)-1-{(2E)-3-[5-chloro-2-(1H-tetrazol-1-yl)phenyl]-2-propenoyl}-N-phenyl-4-[4-(phenylsulfonyl)-1-piperazinyl]-2-pyrrolidinecarboxamide]	0.078	> 100	> 100
O=C(Nc1ccc2nn[nH]c2c1)[C@@H]1C[C@H](N2CCOCC2)CN1C(=O)/C=C/c1cc(Cl)ccc1-n1cnnn1 [Example 43, (2S,4S)—N-(1H-benzotriazol-6-yl)-1-{(2E)-3-[5-chloro-2-(1H-tetrazol-1-yl)phenyl]-2-propenoyl}-4-(4-morpholinyl)-2-pyrrolidinecarboxamide trifluoroacetate]	0.011	> 100	> 100
NC[C@H]1CC[C@H](C(=O)N2C[C@@H](N3CCN(S(=O)(=O)C4CC4)CC3)C[C@H]2C(=O)Nc2ccc(C(=O)O)cc2)CC1 [Example 55, 4-[({(2S,4S)-1-{[trans-4-(aminomethyl)cyclohexyl]carbonyl}-4-[4-(cyclopropylsulfonyl)-1-piperazinyl]-2-pyrrolidinyl}carbonyl)amino]benzoic acid bis(trifluoroacetate)]	0.014	> 100	> 100
C[C@H]1CN([C@H]2C[C@@H](C(=O)Nc3ccccc3)N(C(=O)/C=C/c3cc(Cl)ccc3-n3cnnn3)C2)CCN1S(N)(=O)=O [Example 57, (2S,4S)-1-{(2E)-3-[5-chloro-2-(1H-tetrazol-1-yl)phenyl]-2-propenoyl}-4-[(3S)-3-methyl-4-sulfamoyl-1-piperazinyl]-N-phenyl-2-pyrrolidinecarboxamide trifluoroacetate]	0.027	> 100	> 100
COC(=O)Nc1ccc(-c2cnc([C@@H]3C[C@H](C4CCN(S(C)(=O)=O)CC4)CN3C(=O)C3CCN(C(=N)N)CC3)[nH]2)cc1 [Example 69, methyl [4-(2-{(2S,4R)-1-[(1-carbamimidoyl-4-piperidinyl)carbonyl]-4-[1-(methylsulfonyl)-4-piperidinyl]-2-pyrrolidinyl}-1H-imidazol-5-yl)phenyl]carbamate dihydrochloride]	0.0074	> 100	> 100
COC(=O)Nc1ccc(-c2[nH]c([C@@H]3C[C@H](C4CCN(S(C)(=O)=O)CC4)CN3C(=O)C3CCN(C(=N)N)CC3)nc2Cl)cc1 [Example 71, methyl [4-(2-{(2S,4R)-1-[(1-carbamimidoyl-4-piperidinyl)carbonyl]-4-[1-(methylsulfonyl)-4-piperidinyl]-2-pyrrolidinyl}-4-chloro-1H-imidazol-5-yl)phenyl]carbamate dihydrochloride]	0.0022	94	> 100
COC(=O)Nc1ccc(-c2cnc([C@@H]3C[C@H](C4CCN(S(C)(=O)=O)CC4)CN3C(=O)c3ccc(C(=N)N)cc3)[nH]2)cc1 [Example 73, methyl [4-(2-{(2S,4R)-1-(4-carbamimidoylbenzoyl)-4-[1-(methylsulfonyl)-4-piperidinyl]-2-pyrrolidinyl}-1H-imidazol-5-yl)phenyl]carbamate dihydrochloride]	0.0044	37	> 100
COC(=O)Nc1ccc(-c2[nH]c([C@@H]3C[C@H](C4CCN(S(C)(=O)=O)CC4)CN3C(=O)c3ccc(NC(=N)N)cc3)nc2Cl)cc1 [Example 79, methyl [4-(2-{(2S,4R)-1-(4-carbamimidamidobenzoyl)-4-[1-(methylsulfonyl)-4-piperidinyl]-2-pyrrolidinyl}-4-chloro-1H-imidazol-5-yl)phenyl]carbamate bis(trifluoroacetate)]	0.0065	40	> 100
COC(=O)Nc1ccc(-c2[nH]c([C@@H]3C[C@H](C4CCN(S(C)(=O)=O)CC4)CN3C(=O)[C@H]3CC[C@H]([C@H](C)N)CC3)nc2Cl)cc1 [Example 86, methyl [4-(2-{(2S,4R)-1-({trans-4-[(1S)-1-aminoethyl]cyclohexyl}carbonyl)-4-[1-(methylsulfonyl)-4-piperidinyl]-2-pyrrolidinyl}-4-chloro-1H-imidazol-5-yl)phenyl]carbamate bis(trifluoroacetate)]	0.0099	> 100	> 100
COC(=O)Nc1ccc(-c2[nH]c([C@@H]3C[C@H](C4CCN(S(C)(=O)=O)CC4)CN3C(=O)N3CCN(C(=N)N)CC3)nc2Cl)cc1 [Example 88, methyl [4-(2-{(2S,4R)-1-[(4-carbamimidoyl-1-piperazinyl)carbonyl]-4-[1-(methylsulfonyl)-4-piperidinyl]-2-pyrrolidinyl}-4-chloro-1H-imidazol-5-yl)phenyl]carbamate bis(trifluoroacetate)]	0.0054	57	> 100
Cn1cc(Cl)c2c(F)c(C(=O)N3C[C@@H](C4CCN(S(C)(=O)=O)CC4)C[C@H]3C(=O)Nc3ccc(C(=O)O)cc3)ccc21 [Example 93, 4-[({(2S,4R)-1-[(3-chloro-4-fluoro-1-methyl-1H-indol-5-yl)carbonyl]-4-[1-(methylsulfonyl)-4-piperidinyl]-2-pyrrolidinyl}carbonyl)amino]benzoic acid]	0.018	> 100	> 100
COC(=O)Nc1ccc(-c2[nH]c([C@@H]3C[C@H](C4CCN(S(C)(=O)=O)CC4)CN3C(=O)/C=C/c3cc(Cl)ccc3-n3cnnn3)nc2Cl)cc1 [Example 94, methyl [4-(4-chloro-2-{(2S,4R)-1-{(2E)-3-[5-chloro-2-(1H-tetraol-1-yl)phenyl]-2-propenoyl}-4-[1-(methylsulfonyl)-4-piperidinyl]-2-pyrrolidinyl}-1H-imidazol-5-yl)phenyl]carbamate]	0.0054	> 33	> 33
COC(=O)Nc1ccc(-c2[nH]c([C@@H]3C[C@H](C4CCN(S(C)(=O)=O)CC4)CN3C(=O)[C@H]3CC[C@H](CN)CC3)nc2Cl)cc1 [Example 96, methyl [4-(2-{(2S,4R)-1-{[4-(aminomethyl)cyclohexyl]carbonyl}-4-[1-(methylsulfonyl)-4-piperidinyl]-2-pyrrolidinyl}-4-chloro-1H-imidazol-5-yl)phenyl]carbamate bis(trifluoroacetate)]	0.0042	> 100	> 100
COC(=O)Nc1ccc(-c2cnc([C@@H]3C[C@H](N4CCN(S(C)(=O)=O)CC4)CN3C(=O)C3CCN(C(=N)N)CC3)[nH]2)cc1 [Example 98, methyl [4-(2-(2S,4S)-1-[(1-carbamimidoyl-4-piperidinyl)carbonyl]-4-[4-(methylsulfonyl)-1-piperazinyl]-2-pyrrolidinyl-1H-imidazol-5-yl)phenyl]carbamate trihydrochloride]	0.0023	> 100	> 100
CS(=O)(=O)N1CCC([C@H]2C[C@@H](C(=O)Nc3ccc(C(=O)O)cc3)N(C(=O)c3ccc(C(=N)N)cc3)C2)CC1 [Example 111, 4-[({(2S,4R)-1-(4-carbamimidoylbenzoyl-4-[1-(methylsulfonyl)-4-piperidinyl]-2-pyrrolidinyl}carbonyl)amino]benzoic acid hydrochloride]	0.0085	> 100	
